Test results as given in patent US20200261440A1, “ZINC IONOPHORES AND USES THEREOF” (THE UNIVERSITY OF QUEENSLAND, priority 2017, published 2020).
Marks after values point to notes of the source that are not given here.

Assays:
[1] = test system: GAS strain HKU16 (Streptococcus pyogenes strain HKU16); experiment: microbe, parasite or virus in culture; assay type: cell-based
Procedure: (§1) J. Path. Bact. […] Proc. Soc.
(§2) MIC assays were carried out in biological triplicates.
(§3) M100 Performance Standards for Antimicrobial Susceptibility Testing, 27th Edition.

[2] = test system: Vancomycin-resistant Enterococci (VRE) clinical isolate RBWH1; experiment: MIC by broth microdilution (CLSI); assay type: cell-based, Enterococcus
Procedure: as §1, §2, §3

[3] = test system: GAS; experiment: Drop test assay, growth on THY agar; assay type: cell-based, Streptococcus pyogenes; conditions: PBT2 (1.5 μM), zinc(II) ions (400 μM)
Procedure: (§4) FIG. 1a illustrates growth of GAS, MRSA and VRE on THY agar in the presence or absence of PBT2 (1.5 μM) and zinc(II) ions (400 μM).
(§5) Bacteria were diluted from overnight cultures to get a starting OD600 of 0.01 in THY. Once the bacteria grew to an OD600 of 0.6, the culture were serially diluted in PBS and 5 μL of each dilution (undiluted, 10^−1, 10^−2, 10^−3, 10^−4, 10^−5) was plated on THY agar plates with or without zinc (400 μM) and/or PBT2 ([…]). Plates were incubated at 37° C. overnight. Drop tests were undertaken in biological triplicates.

[4] = test system: MRSA; experiment: Drop test assay, growth on THY agar; assay type: cell-based, Staphylococcus aureus; conditions: PBT2 (1.5 μM), zinc(II) ions (400 μM)
Procedure: as §4, §5

[5] = test system: VRE; experiment: Drop test assay, growth on THY agar; assay type: cell-based, Enterococcus; conditions: PBT2 (1.5 μM), zinc(II) ions (400 μM)
Procedure: as §4, §5

[6] = test system: Methicillin-resistant Staphylococcus aureus (MRSA) strain USA300; experiment: MIC by broth microdilution (CLSI)
Procedure: GAS HKU16, MRSA USA300, VRE RBWH1, Klebsiella pneumoniae strain MS6771, E. coli strain MS8345 and Streptococcus pneumoniae strain 23F were grown in Todd-Hewitt broth (THB) or agar with 1% yeast extract (THY) [Todd, E. W. & Hewitt, L. F. A new culture medium for the production of antigenic streptococcal haemolysin. […] Bacteria were routinely grown at 37° C. in ambient air.
MICs were determined by broth microdilution in accordance to CLSI guidelines (“Methods for Dilution Antimicrobial Susceptibility Tests for Bacteria That Grow Aerobically”, Clinical and Laboratory Standards Institute) [Clinical and Laboratory Standards Institute. […] For MRSA, VRE, Klebsiella pneumoniae and E. coli the assays were performed in MHB, and for GAS and Streptococcus pneumoniae MHB+2.5% lysed horse blood (LHB) was used. The bacterial inoculum was prepared by direct colony suspension aiming for 2-8×10^5 colony forming units (CFU)/mL bacteria per well. Antibiotics/compounds were serially diluted two-fold across the 96-well plate, the last column contained no antibiotics/compounds. The inoculum was added to the plate containing antibiotic/compound and incubated for 16-24 h at 35+/−2° C. […] MIC assays were carried out in biological triplicates.
Using Clinical and Laboratory Standards Institute guidelines for antimicrobial sensitivity testing [Clinical and Laboratory Standards Institute.

[7] = test system: Klebsiella pneumoniae strain MS6771; experiment: MIC by broth microdilution (CLSI); assay type: cell-based
[8] = test system: MCR-1 E. coli strain MS8345; experiment: MIC by broth microdilution (CLSI); assay type: cell-based, Escherichia coli; conditions: for antibiotic sensitivity of resistant strain: MCR1-positive E. coli MS8345; for MIC: MCR-1 E. coli
Procedure: as §1
J Infect Dis. 1995 171:890-6). E. coli strain MS8345 is a MCR-1 resistant clinical isolate supplied by Prof. D. L. Paterson, University of Queensland Centre for Clinical Research.
(§6) (2017)]. […] MIC assays were carried out in biological triplicates.

[9] = test system: P. aeruginosa strain 253-43-C; experiment: MIC by broth microdilution (CLSI); assay type: cell-based, Pseudomonas aeruginosa
Procedure: They were obtained from Jan Bell, Australian Centre of Microbial Resistance Ecology (ACARE), University of Adelaide, Australia.
as §6

[Zn+2] [Zinc(II) ion]
MIC ([1]; GAS HKU 16, substance alone): 2 mM | MIC ([2]; VRE RBWH1, substance alone): 3 mM | antibacterial activity [3]: neither PBT2 nor zinc(II) ions (in the form of zinc chloride) displayed antibacterial activity | antibacterial activity [4]: neither PBT2 nor zinc(II) ions (in the form of zinc chloride) displayed antibacterial activity | antibacterial activity [5]: neither PBT2 nor zinc(II) ions (in the form of zinc chloride) displayed antibacterial activity | MIC ([6]; MRSA USA300, substance alone): 3 mM

polymyxin B
antibiotic resensitization ([1]; GAS HKU16, RA-HQ-12+zinc(II) ions (ZnSO4)): resensitize | antibiotic sensitivity of resistant strain ([1]; GAS HKU16, addition of sub-inhibitory PBT2+zinc(II) ions): became sensitive | MIC ([1]; GAS, RA-HQ-12: 3.5 μM, Zn: […]): 4^# μg/mL | MIC ([1]; Streptococcus pyogenes HKU16, CQ: 0 μM, Zinc: 0 μM): 64 µg/mL | MIC ([1]; Streptococcus pyogenes HKU16, CQ: 6 μM): 32 µg/mL | MIC ([1]; Streptococcus pyogenes HKU16, CQ: 6 μM, Zinc: 80 μM): 1 µg/mL | MIC ([1]; Streptococcus pyogenes HKU16, PBT2: 0 μM, Zinc: 0 μM): 64 to 128 µg/mL | MIC ([1]; Streptococcus pyogenes HKU16, PBT2: 4.75 μM): 32 µg/mL | MIC ([1]; Streptococcus pyogenes HKU16, PBT2: 4.75 μM, Zinc: […]): 1 to 2 µg/mL | MIC ([1]; Streptococcus pyogenes HKU16, Zinc: 80 μM): 64 µg/mL | MIC ([1]; Streptococcus pyogenes HKU16, Zinc: […] (PBT2 panel)): 64 µg/mL | MIC ([2]; VRE RBWH1, CQ: 2.5 μM): 64 µg/mL | MIC ([2]; VRE RBWH1, CQ: 2.5 μM, Zinc: 32 μM): 0.5 to 1 µg/mL | MIC ([2]; VRE RBWH1, PBT2: 1.75 μM): 64 µg/mL | MIC ([2]; VRE RBWH1, PBT2: 1.75 μM, Zinc: […]): 0.5 µg/mL | antibiotic resensitization ([2]; VRE RBWH1, RA-HQ-12+zinc(II) ions (ZnSO4)): resensitize | antibiotic sensitivity of resistant strain ([2]; VRE RBWH1, addition of sub-inhibitory PBT2+zinc(II) ions): became sensitive | MIC ([2]; VRE, RA-HQ-12: 3.5 μM): 16 µg/mL | MIC ([2]; VRE, RA-HQ-12: 3.5 μM, Zn: […]): 4^# μg/mL | MIC ([7]; K. pneumoniae, RA-HQ-12: 16 μM, Zn: 64 μM): 4^# μg/mL | antibiotic resensitization ([7]; Klebsiella pneumoniae MS6771, RA-HQ-12+zinc(II) ions (ZnSO4)): resensitize | antibiotic sensitivity of resistant strain ([7]; Klebsiella pneumoniae MS6771, addition of sub-inhibitory PBT2+zinc(II) ions): became sensitive | antibiotic sensitivity of resistant strain ([7]; Klebsiella pneumoniae MS6771, combination with PBT2, no zinc): resulted in sensitivity | MIC ([7]; Klebsiella pneumoniae, CQ: 0 μM, Zinc: 0 μM): 64 µg/mL | MIC ([7]; Klebsiella pneumoniae, CQ: 64 μM): 2 µg/mL | MIC ([7]; Klebsiella pneumoniae, CQ: 64 μM, Zinc: 256 μM): 2 µg/mL | MIC ([7]; Klebsiella pneumoniae, PBT2: 0 μM, Zinc: 0 μM): 32 to 64 µg/mL | MIC ([7]; Klebsiella pneumoniae, Zinc: 256 μM (CQ panel)): 32 to 64 µg/mL | MIC ([7]; Klebsiella pneumoniae, Zinc: 256 μM (PBT2 panel)): 32 to 64 µg/mL | antibiotic sensitivity of resistant strain ([8]; addition of sub-inhibitory PBT2+zinc(II) ions): became sensitive | antibiotic sensitivity of resistant strain ([8]; combination with PBT2, no zinc): resulted in sensitivity | MIC ([8]; CQ: 0 μM, Zinc: 0 μM): 8 µg/mL | MIC ([8]; CQ: 5 μM): 2 to 4 µg/mL | MIC ([8]; CQ: 5 μM, Zinc: 25 μM): 1 µg/mL | MIC ([8]; PBT2: 0 μM, Zinc: 0 μM): 8 µg/mL | MIC ([8]; PBT2: 7 μM): 1 µg/mL | MIC ([8]; PBT2: 7 μM, Zinc: 200 μM): 0.5 µg/mL | MIC ([8]; Zinc: 25 μM): 8 µg/mL | MIC ([8]; Zinc: 200 μM): 8 µg/mL | MIC ([9]; PBT2): 1 µg/mL | MIC ([9]; Untreated): 8 µg/mL | MIC ([6]; MRSA USA300, CQ: 1 μM): 64 µg/mL | MIC ([6]; MRSA USA300, CQ: 1 μM, Zinc: 32 μM): 2 µg/mL | MIC ([6]; MRSA USA300, PBT2: 0 μM, Zinc: 0 μM): 64 µg/mL | MIC ([6]; MRSA USA300, PBT2: 2 μM): 64 µg/mL | MIC ([6]; MRSA USA300, PBT2: 2 μM, Zinc: 50 μM): 2 µg/mL | antibiotic resensitization ([6]; MRSA USA 300, RA-HQ-12+zinc(II) ions (ZnSO4)): resensitize | MIC ([6]; MRSA USA300, Zinc: 50 μM): 64 µg/mL | antibiotic sensitivity of resistant strain ([6]; MRSA USA300, addition of sub-inhibitory PBT2+zinc(II) ions): became sensitive | MIC ([6]; MRSA, RA-HQ-12: 3.5 μM, Zn: […], oxacillin with 2% NaCl): 4^# μg/mL | MIC ([6]; MRSA, RA-HQ-12: 3.5 μM, oxacillin with 2% NaCl): 32 µg/mL
